Test results reported in ChEMBL document CHEMBL5316331, “Modulating Cytotoxicity with Lego-like Chemistry: Upgrading Mitochondriotropic Antioxidants with Prototypical Cationic Carrier Bricks” (J Med Chem, 2023).
Calls of active or inactive are those of the source. The calls are words filed in the database; no cut-off is given here.

Tests used:
SH-SY5Y [1] = assay: Cytotoxicity against human SH-SY5Y cells assessed as decrease in lysosomal activity at > 25 uM incubated for 24 hrs by neutral red uptake assay; type: toxicity, cell-based
SH-SY5Y [2] = assay: Cytotoxicity against human SH-SY5Y cells assessed as decrease in lysosomal activity at > 50 uM incubated for 24 hrs by neutral red uptake assay; type: toxicity, cell-based
SH-SY5Y [3] = assay: Cytotoxicity against human SH-SY5Y cells assessed as decrease in cell mass at > 25 uM incubated for 24 hrs by SRB assay; type: toxicity, cell-based
HepG2 [4] = assay: Cytotoxicity against human HepG2 cells assessed as decrease in cellular metabolic activity at > 3.1 uM incubated for 24 hrs by resazurin reduction assay; type: toxicity, cell-based; conditions: hepg2, 24 h
HepG2 [5] = assay: Cytotoxicity against human HepG2 cells assessed as decrease in cellular metabolic activity at > 10 uM incubated for 24 hrs by resazurin reduction assay; type: toxicity, cell-based; conditions: hepg2, 24 h
HepG2 [6] = assay: Cytotoxicity against human HepG2 cells assessed as decrease in lysosomal activity at > 3.1 uM incubated for 24 hrs by resazurin reduction assay; type: toxicity, cell-based; conditions: hepg2, 24 h
HepG2 [7] = assay: Cytotoxicity against human HepG2 cells assessed as decrease in lysosomal activity at > 10 uM incubated for 24 hrs by resazurin reduction assay; type: toxicity, cell-based; conditions: hepg2, 24 h
HepG2 [8] = assay: Cytotoxicity against human HepG2 cells assessed as decrease in cell mass at > 6.25 uM incubated for 24 hrs by SRB assay; type: toxicity, cell-based; conditions: hepg2, 24 h
SH-SY5Y [9] = assay: Cytotoxicity against human SH-SY5Y cells assessed as decrease in cellular metabolic activity at 1 to 100 uM incubated upto 48 hrs by resazurin reduction assay; type: toxicity, cell-based; conditions: dose 1-100 µM
SH-SY5Y [10] = assay: Cytotoxicity against human SH-SY5Y cells assessed as decrease in lysosomal activity at 1 to 100 uM incubated upto 48 hrs by resazurin reduction assay; type: toxicity, cell-based; conditions: dose 1-100 µM
[11] = Dissociation constant, pKa of the compound by UV-vis spectrophotometric analysis; type: physicochemical
[12] = Drug uptake in C57BL/6J mouse liver mitochondria at 5 uM in presence of rotenone by UPLC analysis; type: ADME
[13] = Drug uptake in C57BL/6J mouse liver mitochondria at 5 uM in presence of succinate by UPLC analysis; type: ADME
[14] = Drug uptake in C57BL/6J mouse liver mitochondria at 5 uM in presence of FCCP by UPLC analysis; type: ADME
SH-SY5Y [15] = assay: Antioxidant activity against human SH-SY5Y cells assessed as increase in proton leak-associated respiration at 10 uM incubated for 24 hrs followed by addition of oligomycin/FCCP/antimycin A /rotenone by Cell Mito stress assay based seahorse XF96 flux analyzer; type: functional
SH-SY5Y [16] = assay: Antioxidant activity against human SH-SY5Y cells assessed as effect on intracellular ATP level at 10 uM incubated for 24 hrs followed by addition of oligomycin/FCCP/antimycin A /rotenone by Cell Mito stress assay based seahorse XF96 flux analyzer; type: functional
SH-SY5Y [17] = assay: Antioxidant activity against human SH-SY5Y cells assessed as effect on ATP production-linked respiration at 10 uM incubated for 24 hrs followed by addition of oligomycin/FCCP/antimycin A /rotenone by Cell Mito stress assay based seahorse XF96 flux analyzer; type: functional
SH-SY5Y [18] = assay: Antioxidant activity against human SH-SY5Y cells assessed as increase in ECAR at 10 uM incubated for 24 hrs followed by addition of oligomycin/FCCP/antimycin A /rotenone by Cell Mito stress assay based seahorse XF96 flux analyzer; type: functional
SH-SY5Y [19] = assay: Induction of mitochondrial membrane polarization in human SH-SY5Y cells at 10 uM incubated for 24 hrs by JC-1 staining based fluorescence assay; type: functional
SH-SY5Y [20] = assay: Induction of mitochondrial membrane polarization in human SH-SY5Y cells at 50 uM incubated for 24 hrs by JC-1 staining based fluorescence assay; type: functional
SH-SY5Y [21] = assay: Effect on cell mitochondrial mass in human SH-SY5Y cells assessed as reduction on mitochondrial mass at 10 uM incubated for 24 hrs by mito-tracker green dye based flow cytometry; type: functional; parameters: scale not given: the % may be the effect or the level left
SH-SY5Y [22] = assay: Effect on cell morphology in human SH-SY5Y cells assessed as reduction in cell body at 10 uM incubated for 24 hrs by Phase-contrast microscopy; type: functional, cell-based
SH-SY5Y [23] = assay: Effect on cell morphology in human SH-SY5Y cells assessed as reduction in cell body at 50 uM incubated for 24 hrs by Phase-contrast microscopy; type: functional, cell-based
SH-SY5Y [24] = assay: Effect on cell morphology in human SH-SY5Y cells assessed as reduction in neurite at 10 uM incubated for 24 hrs by Phase-contrast microscopy; type: functional, cell-based
SH-SY5Y [25] = assay: Effect on cell morphology in human SH-SY5Y cells assessed as reduction in neurite at 50 uM incubated for 24 hrs by Phase-contrast microscopy; type: functional, cell-based
SH-SY5Y [26] = assay: Effect on cell death pathway in human SH-SY5Y cells assessed as increase in early apoptotic cells at 10 uM incubated for 24 hrs by Annexin V-FITC/PI staining based microscopy; type: functional
SH-SY5Y [27] = assay: Effect on cell death pathway in human SH-SY5Y cells assessed as increase in late apoptotic cells at 10 uM incubated for 24 hrs by Annexin V-FITC/PI staining based microscopy; type: functional
SH-SY5Y [28] = assay: Effect on cell death pathway in human SH-SY5Y cells assessed as increase in necrotic cells at 10 uM incubated for 24 hrs by Annexin V-FITC/PI staining based microscopy; type: functional
SH-SY5Y [29] = assay: Effect on cell death pathway in human SH-SY5Y cells assessed as increase in early apoptotic cells at 50 uM incubated for 24 hrs by Annexin V-FITC/PI staining based microscopy; type: functional
SH-SY5Y [30] = assay: Effect on cell death pathway in human SH-SY5Y cells assessed as increase in late apoptotic cells at 50 uM incubated for 24 hrs by Annexin V-FITC/PI staining based microscopy; type: functional
SH-SY5Y [31] = assay: Effect on cell death pathway in human SH-SY5Y cells assessed as increase in necrotic cells at 50 uM incubated for 24 hrs by Annexin V-FITC/PI staining based microscopy; type: functional
SH-SY5Y [32] = assay: Neuroprotective activity against tBHP-induced human SH-SY5Y cells assessed as increase in cell viability at 10 uM preincubated for 30 mins followed by t-BHP addition at 15 uM and measured after 24 hrs by neutral dye uptake assay relative to control; type: functional; conditions: time 24.5 hrs
SH-SY5Y [33] = assay: Neuroprotective activity against tBHP-induced human SH-SY5Y cells assessed as increase in cell viability at 10 uM preincubated for 30 mins followed by t-BHP addition at 30 uM and measured after 24 hrs by neutral dye uptake assay relative to control; type: functional; conditions: time 24.5 hrs
SH-SY5Y [34] = assay: Neuroprotective activity against tBHP-induced human SH-SY5Y cells assessed as increase in cell viability at 10 uM preincubated for 30 mins followed by t-BHP addition and measured after 24 hrs by SRB assay; type: functional, cell-based; conditions: time 24.5 hrs
SH-SY5Y [35] = assay: Neuroprotective activity against H2O2-induced human SH-SY5Y cells assessed as increase in cell viability at 10 uM preincubated for 30 mins followed by H2O2 addition and measured after 24 hrs by SRB assay; type: functional, cell-based; conditions: time 24.5 hrs

In the case of CS(=O)(=O)[O-].O=C(/C=C/c1ccc(O)c(O)c1)NCCCCCCCCCC[P+](c1ccccc1)(c1ccccc1)c1ccccc1, the Activity (SH-SY5Y [1]) is reported as “Toxic”, the Activity (SH-SY5Y [2]) is reported as “Toxic” and the Activity (SH-SY5Y [3]) is reported as “Toxic”. The Activity (HepG2 [4]) was “Toxic”, the Activity (HepG2 [5]) was “Toxic” and the Activity (HepG2 [6]) was “Toxic”. For the same compound, the Activity (HepG2 [7]) was “Toxic”, the Activity (HepG2 [8]) was “Toxic” and the Activity (SH-SY5Y [9]) was “Toxic”. The Activity (SH-SY5Y [10]) was “Toxic”, the pKa [11] was 8.61 and the Drug uptake [12] was “Not Active”. For the same compound, the Drug uptake [13] was ~ 25%, the Drug uptake [14] was “Active” and the Activity (SH-SY5Y [15]) was “Active”. The Activity (SH-SY5Y [16]) was “inactive”, the Activity (SH-SY5Y [17]) was “inactive” and the Activity (SH-SY5Y [18]) was “Active”. For the same compound, the Activity (SH-SY5Y [19]) was 124.8%, the Activity (SH-SY5Y [20]) was 72.7% and the Activity (SH-SY5Y [21]) was 69.2%. The Activity (SH-SY5Y [22]) was “Active”, the Activity (SH-SY5Y [23]) was “Active” and the Activity (SH-SY5Y [24]) was “Active”. The Activity (SH-SY5Y [25]) was “Active”, the Activity (SH-SY5Y [26]) was “Active” and the Activity (SH-SY5Y [27]) was “Active”. The Activity (SH-SY5Y [28]) was “Active”, the Activity (SH-SY5Y [29]) was “Active” and the Activity (SH-SY5Y [30]) was “Active”. The Activity (SH-SY5Y [31]) was “Active”, the Activity (SH-SY5Y [32]) was 95.1% and the Activity (SH-SY5Y [33]) was 54.9%. The Activity (SH-SY5Y [34]) was “Active” and the Activity (SH-SY5Y [35]) was “inactive”.
